Source: US11014934B2, “Antiseptic drug” (AO “TATKHIMFARMPREPARATY”, priority 2017, dated 2021)
Read-outs that look alike come from different tables or passages of the source.

Tests used:
Stylonychia mytilus = experiment: Antiprotozoal activity by death of protozoa; type: cell-based; details: for IC50: read-out: IC50 (95% confidence interval)
Method: Evaluation of the antiprotozoal activity of compound I was determined by the viability of the protozoa genus of hypotrichs Stylonychia mytilus in a nutrient medium in the presence of the studied substances. A mother liquor of compound I (10 mg/ml) was prepared in a mixture of DMSO and 96% ethanol (1:1). A 1% aqueous solution of DMSO and ethyl alcohol served as a negative control, and miramistin, benzalkonium chloride, and chlorhexidine were used as reference preparations. Then, from the mother liquors by repeated dilutions with water, working solutions were prepared corresponding to doses of 5; 10; 20; 25; 50; 75; 100 and 150 μg/ml. 10 μl of culture medium with protozoa and 10 μl of a solution of the test substance were applied to a chamber slide. The experiment was done in five replicates.
Slides were examined under a light microscope, antiprotozoal activity of substances (MIC and IC50) were determined by the death of protozoa. The Hill regression model with 5 parameters was used for the analysis.

[1] = system: Bovine rhinotracheitis virus (herpes virus family), vaccine strain TK-A (VIEV)-V2; experiment: Antiviral (virulicidal) activity, cytopathogenic effect on LCE cells; type: cell-based, IBR virus; details: for destruction of the monolayer, drug with the virus: virus incubated with drug one hour, LCE cells 72 hours; for concentration with virulicidal effect: herpes virus type 1, infectious titer 6.0 Ig TCD50/ml
Method: The study of the antiviral activity of compound I in vitro was carried out in accordance with [D. L. Kuznetsov, A. YA. Samuylenko, V. I. Belousov Immunofermentnaya diagnostika IRT KRS. Veterinariya.—2002.—No 3.—S. 22-25. D. L. Kuznetsov, A. Y. ? Samuylenko, V. I. Belousov Enzyme-linked immunosorbent assay for cattle IBR. Veterinary medicine.—2002.—No 3.—P. 22-25].
Cells of a light cow embryo (LCE) are obtained from the Federal State Budgetary Institution “All-Russian Institute of Experimental Veterinary Medicine”, Moscow. Bovine rhinotracheitis virus (herpes virus family), vaccine strain “TK-A (VIEV)-V2” was obtained from the Federal State Budgetary Institution “All-Russian Institute of Experimental Veterinary Medicine”, Moscow.
Evaluation of the antiviral activity of compound I was carried out in an appropriate medium on LCE cells that were infected with the IBR virus belonging to the type 1 herpes virus family.
The virus was incubated in the presence of compound I in a culture medium at 37° C. for one hour at various concentrations; miramistin and benzalkonium chloride served as control preparations. After incubation of the virus with substances, it was added to the cell culture, which was then incubated at 37° C., 5% CO2 for 72 hours.
Evaluation of the cytopathogenic effect was carried out visually by the state of the cell monolayer as compared with the controls (virus without incubation with the drug, the studied drug concentrations without the virus). The virus titer was calculated using the method of Reed-Muench in the modification of Ashmarin and expressed in Ig TCD50/ml.

[2] = system: Candida albicans RCPF Y-401/NCTC-885-653; experiment: Antifungal activity, 2-fold serial dilutions in Saburo glucose broth; type: cell-based, C. albicans; details: for MIC: Candida albicans
Method: The study of the antifungal activity of compound I in vitro was carried out in accordance with [Metodicheskiye rekomendatsii No 2. Mikologicheskoye issledovaniye ob″yektov okruzhayushchey sredy i opredeleniye protivogribkovoy aktivnosti razlichnykh veshchestv.—GOU DPO SPbMAPO NII meditsinskoy mikologii im. P. N. Kashkina, GBOU VPO SZGMU im. I. I. Mechnikova Minzdrava. SPb.: Izd. Dom SPbMAPO.—2008.—S. 16. Methodological recommendations No 2. Mycological examination of environmental objects and determination of antifungal activity of various substances.—State Educational Institution of St. Petersburg Medical Academy of Postgraduate Education with Scientific Research Institute of Medical Mycology named after P. N. Kashkin, State Educational Institution of Higher Professional Education North-West State Medical University named after I. I. Mechnikov, Ministry of Health. St. Petersburg.:: Publishing House SPbMAPO.—2008.—P. 16].
The study of the antifungal activity of substances in vitro was carried out in a liquid nutrient medium (Saburo glucose broth) in biological tubes by the method of 2-fold serial dilutions. In test tubes, three parallel series of dilutions of the test substance were prepared in the following way.
Saburo's liquid broth was sterilely poured in 3 ml into each tube; 4.5 ml was poured into the first tube of the row. A total of 14 tubes were used in a row; of which the last was a control one. 400 mg of the test substance was taken as a standard sample and dissolved in 10 ml of distilled water. Thus, the initial dilution contained the test substance at a concentration of 40000 ug/ml. Then 0.5 ml of this dilution was introduced into the first test tube of the series (with 4.5 ml of medium), thereby diluting the concentration of the substance by another 10 times. Therefore, the first tube of the series contained 4000 μg/ml of the test substance. Then, 3 ml of the solution was taken from the first tube and transferred to the second tube, thoroughly purged, then 3 ml of the solution were taken again from the second tube and transferred to the third tube, etc.; from the penultimate tube, 3 ml was poured. […] The growth of cultures was initially assessed visually, comparing the growth of microorganisms in the presence of test compounds with the growth of culture without them. […] The first lowest concentration of the substance (from a series of consecutive dilutions), where the growth of fungi was suppressed or not visually determined, was considered the minimum inhibitory concentration (MIC).
For the preparation of inoculum, were respectively used pure (2-5) days cultures of yeast and mycelial fungi, grown on Saburo's dense nutrient broth. […] The inoculum was used within 15 minutes after preparation; the purity of the fungal strains was monitored before each experiment. […]

[3] = C. albicans RCPF Y-401/NCTC-885-653
[4] = death of protozoa, Hill regression

CCCCCCCCCCCCCC(=O)NCCC[N+](C)(C)Cc1ccccc1.O.[Cl-] [Miramistin, benzyldimethyl [3-(myristoylamino)propyl]-ammonium chloride monohydrate] was tested. Which MIC (Stylonychia mytilus) did it give?
Its MIC is 50 mg/L.

What about the IC50 (Stylonychia mytilus) of the same compound?
The IC50 was 92 mg/L.

What about the “destruction of the monolayer, drug with the virus” value (from here on “destruction of the monolayer, drug”) ([1]; 100 μg/ml) of the same compound?
The value was “+++ (+++ - 90-100% destruction of the monolayer)”.

And the “destruction of the monolayer, drug” value ([1]; 150 μg/ml)?
The value was “− (−0-10% destruction of the monolayer)”.

What about the “destruction of the monolayer, drug” value ([1]; 200 μg/ml) of the same compound?
Its value is “− (−0-10% destruction of the monolayer)”.

What about the “concentration with virulicidal effect” value [1] of the same compound?
Its value is 150 µg/mL.

What about the “The value of the MIC” value [2, 3] of the same compound?
Its value is “inactive”.

And the MIC ([2]; NCTC885, read-out: The value of the MIC)?
Its MIC is > 500 mg/L.

Which IC50 (Stylonychia mytilus; [4]) does the source give for CCCCCCCCCCCC[N+](C)(C)Cc1cnc(C[N+](C)(C)CCCCCCCCCCCC)c2c1COC(CC)O2 (stereo not shown) [Compound I, 5,8-(Bis(methylene (N, N-dimethyl-N-dodecylammonium))-2-ethyl-4H-[1,3]dioxino [4,5-c]pyridiniumdichloride] here?
The IC50 was 59 mg/L.

And the MIC (Stylonychia mytilus; death of protozoa, read-out: MIC)?
The MIC was 25 mg/L.

And the “destruction of the monolayer, drug” value ([1]; 150 μg/ml)?
Its value is “++ (++ - −40-70% destruction of the monolayer)”.

And the “destruction of the monolayer, drug” value ([1]; 200 μg/ml)?
Its value is “− (−0-10% destruction of the monolayer)”.

And the “concentration with virulicidal effect” value [1]?
The value was 200 µg/mL.

And the MIC ([2]; NCTC885, C. albicans RCPF Y-401/NCTC-885-653, read-out: The value of the MIC)?
Its MIC is 62.5 mg/L.

For “alkyldimethyl(phenylmethyl) ammonium chloride [Benzalconium chloride]”, which MIC (Stylonychia mytilus; death of protozoa) is on record?
The MIC was 30 mg/L.

What about the “IC50 (95% confidence interval)” value (Stylonychia mytilus; [4]) of the same compound?
The value was 67 (66-69) μg/ml.

What about the “destruction of the monolayer, drug” value ([1]; 150 μg/ml) of the same compound?
The value was “++ (++ - −40-70% destruction of the monolayer)”.

And the “destruction of the monolayer, drug” value ([1]; 200 μg/ml)?
The value was “− (−0-10% destruction of the monolayer)”.

What about the “The value of the MIC” value [2, 3] of the same compound?
The value was 7.8 mg/L.
